Test results reported in patent US6737383B1, “Herbicidal oxadiazolidines” (priority 1999, dated 2004).

How the values were obtained:
sugar beet = test: Test B pre/postemergence sugar beet; type: in vivo, Beta vulgaris
Method in brief: (§1)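 Herbicidal effect was estimated by eye on a ten-point control scale after plants spent twelve to sixteen days in a greenhouse following soil or foliar treatment. Foliar sprays targeted plants at one to four leaves; all doses were formulated in a non-phytotoxic solvent with surfactant.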

soybean = test: Test B pre/postemergence soybean; type: in vivo, Glycine max
Method in brief: as §1

pigweed = test: Test B pre/postemergence pigweed; type: in vivo, Amaranthus retroflexus
Method in brief: as §1

surinam grass = test: Test B pre/postemergence surinam grass; type: in vivo, Brachiaria decumbens
Method in brief: as §1

smallflower flatsedge = test: Test B flood test smallflower flatsedge; type: in vivo, Cyperus difformis
Method in brief: (§2)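 Read-out is a visual response score from 0 (no effect) to 10 (complete control), assigned by comparison with untreated controls. Treatment was applied at the 2-leaf stage, and plants stayed in the greenhouse for twelve to sixteen days before scoring.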

giant foxtail = test: Test B pre/postemergence giant foxtail; type: in vivo, Setaria faberii
Method in brief: as §1

cocklebur = test: Test B pre/postemergence cocklebur; type: in vivo, Xanthium strumarium
Method in brief: as §1

purple nutsedge = test: Test B pre/postemergence purple nutsedge; type: in vivo, Cyperus rotundus
Method in brief: as §1

rape = test: Test B pre/postemergence rape; type: in vivo, Brassica napus
Method in brief: as §1

blackgrass = test: Test B pre/postemergence blackgrass; type: in vivo, Alopecurus myosuroides
Method in brief: as §1

corn = test: Test B pre/postemergence corn; type: in vivo, Zea mays
Method in brief: as §1

wild oat = test: Test B pre/postemergence wild oat; type: in vivo, Avena fatua
Method in brief: as §1

morningglory = test: Test B pre/postemergence morningglory; type: in vivo, Ipomoea hederacea
Method in brief: as §1

bamyardgrass = test: Test B flood test barnyardgrass; type: in vivo, Echinochloa crus-galli
Method in brief: as §2

velvetleaf = test: Test B pre/postemergence velvetleaf; type: in vivo, Abutilon theophrasti
Method in brief: as §1

crabgrass = test: Test B pre/postemergence crabgrass; type: in vivo, Digitaria sanguinalis
Method in brief: as §1

[1] = Postemergence, Rate 62 g/ha, scale 0 to 10, 0 is no effect, 10 is complete control
[2] = Postemergence, Rate 250 g/ha, scale 0 to 10, 0 no effect, 10 complete control
[3] = Preemergence, Rate 62 g/ha, scale 0 to 10, 0 is no effect, 10 is complete control
[4] = Preemergence, Rate 125 g/ha, scale 0 to 10 (0 no effect, 10 complete control)
[5] = Preemergence, Rate 250 g/ha, scale of 0 to 10 where 0 is no effect and 10 is complete control
[6] = Preemergence, Rate 500 g/ha, scale 0 (no effect) to 10 (complete control)
[7] = Rate 125 g/ha, Postemergence, scale 0 to 10, 0 no effect, 10 complete control
[8] = Rate 500 g/ha, Postemergence, 0 to 10 scale (0 no effect, 10 complete control)
[9] = Rate 125 g/ha, Postemergence section (flood test species), scale 0 to 10, 0 no effect, 10 complete control
[10] = flood test, listed under Postemergence, Rate 250 g/ha, scale 0 to 10, 0 no effect, 10 complete control

CC(C)N(C(=O)n1oc(=O)n(-c2ccccc2)c1=O)c1ccc(F)cc1 [Compound 38]
Sugarbeets plant response rating (sugar beet; [1]): 0 | Sugarbeets plant response rating (sugar beet; [2]): 0 | Plant response rating, Sugarbeets (sugar beet; [3]): 0 | Plant response rating, Sugarbeets (sugar beet; [4]): 0 | Plant response rating, Sugarbeets (sugar beet; [5]): 2 | Sugarbeets plant response rating (sugar beet; [6]): 6 | Sugarbeets plant response rating (sugar beet; [7]): 0 | Soybean plant response rating (soybean; [1]): 0 | Soybean plant response rating (soybean; [2]): 0 | Plant response rating, Soybean (soybean; [3]): 0 | Plant response rating, Soybean (soybean; [4]): 0 | Plant response rating, Soybean (soybean; [5]): 0 | Soybean plant response rating (soybean; [6]): 2 | Soybean plant response rating (soybean; [7]): 0 | Redroot pigweed plant response rating (pigweed; [1]): 0 | Redroot pigweed plant response rating (pigweed; [2]): 0 | Plant response rating, Redroot pigweed (pigweed; [3]): 2 | Plant response rating, Redroot pigweed (pigweed; [4]): 10 | Plant response rating, Redroot pigweed (pigweed; [5]): 10 | Redroot pigweed plant response rating (pigweed; [6]): 10 | Redroot pigweed plant response rating (pigweed; [7]): 0 | Redroot pigweed plant response rating (pigweed; [8]): 0 | B. signalgrass plant response rating (surinam grass; [1]): 0 | B. signalgrass plant response rating (surinam grass; [2]): 0 | Plant response rating, B. signalgrass (surinam grass; [3]): 3 | Plant response rating, B. signalgrass (surinam grass; [4]): 4 | Plant response rating, B. signalgrass (surinam grass; [5]): 8 | B. signalgrass plant response rating (surinam grass; [6]): 8 | B. signalgrass plant response rating (surinam grass; [7]): 0 | B. signalgrass plant response rating (surinam grass; [8]): 0 | S. Flatsedge plant response rating (smallflower flatsedge; [1]): 0 | S. Flatsedge plant response rating (smallflower flatsedge; [9]): 0 | S. Flatsedge plant response rating (smallflower flatsedge; [10]): 0 | Giant foxtail plant response rating (giant foxtail; [1]): 0 | Giant foxtail plant response rating (giant foxtail; [2]): 4 | Plant response rating, Giant foxtail (giant foxtail; [3]): 10 | Plant response rating, Giant foxtail (giant foxtail; [4]): 10 | Plant response rating, Giant foxtail (giant foxtail; [5]): 10 | Giant foxtail plant response rating (giant foxtail; [6]): 10 | Giant foxtail plant response rating (giant foxtail; [7]): 2 | Giant foxtail plant response rating (giant foxtail; [8]): 8 | Cocklebur plant response rating (cocklebur; [1]): 0 | Cocklebur plant response rating (cocklebur; [2]): 1 | Plant response rating, Cocklebur (cocklebur; [3]): 0 | Plant response rating, Cocklebur (cocklebur; [4]): 0 | Cocklebur plant response rating (cocklebur; [6]): 0 | Cocklebur plant response rating (cocklebur; [7]): 0 | Cocklebur plant response rating (cocklebur; [8]): 1 | Nutsedge plant response rating (purple nutsedge; [1]): 0 | Nutsedge plant response rating (purple nutsedge; [2]): 0 | Plant response rating, Nutsedge (purple nutsedge; [3]): 0 | Plant response rating, Nutsedge (purple nutsedge; [4]): 0 | Plant response rating, Nutsedge (purple nutsedge; [5]): 0 | Nutsedge plant response rating (purple nutsedge; [6]): 0 | Nutsedge plant response rating (purple nutsedge; [7]): 0 | Nutsedge plant response rating (purple nutsedge; [8]): 0 | Rape plant response rating (rape; [1]): 0 | Rape plant response rating (rape; [2]): 0 | Plant response rating, Rape (rape; [3]): 0 | Plant response rating, Rape (rape; [4]): 0 | Rape plant response rating (rape; [6]): 0 | Rape plant response rating (rape; [7]): 0 | Rape plant response rating (rape; [8]): 0 | Blackgrass plant response rating (blackgrass; [1]): 0 | Blackgrass plant response rating (blackgrass; [2]): 7 | Plant response rating, Blackgrass (blackgrass; [3]): 4 | Plant response rating, Blackgrass (blackgrass; [4]): 6 | Plant response rating, Blackgrass (blackgrass; [5]): 10 | Blackgrass plant response rating (blackgrass; [6]): 10 | Blackgrass plant response rating (blackgrass; [7]): 3 | Blackgrass plant response rating (blackgrass; [8]): 8 | Corn plant response rating (corn; [1]): 0 | Corn plant response rating (corn; [2]): 0 | Plant response rating, Corn (corn; [3]): 0 | Plant response rating, Corn (corn; [4]): 0 | Plant response rating, Corn (corn; [5]): 0 | Corn plant response rating (corn; [6]): 0 | Corn plant response rating (corn; [7]): 0 | Corn plant response rating (corn; [8]): 0 | Wild oats plant response rating (wild oat; [1]): 0 | Wild oats plant response rating (wild oat; [2]): 0 | Plant response rating, Wild oats (wild oat; [4]): 6 | Plant response rating, Wild oats (wild oat; [5]): 6 | Wild oats plant response rating (wild oat; [6]): 8 | Wild oats plant response rating (wild oat; [7]): 0 | Morningglory plant response rating (morningglory; [1]): 0 | Morningglory plant response rating (morningglory; [2]): 1 | Plant response rating, Morningglory (morningglory; [3]): 0 | Plant response rating, Morningglory (morningglory; [4]): 0 | Plant response rating, Morningglory (morningglory; [5]): 0 | Morningglory plant response rating (morningglory; [6]): 0 | Morningglory plant response rating (morningglory; [7]): 0 | Morningglory plant response rating (morningglory; [8]): 10 | Barnyardgrass plant response rating (bamyardgrass; [1]): 0 | Barnyardgrass plant response rating (bamyardgrass; [9]): 0 | Barnyardgrass plant response rating (bamyardgrass; Rate 500 g/ha, Postemergence section of Table B, 0 to 10 scale (0 no effect, 10 complete control)): 0 | Barnyardgrass plant response rating (bamyardgrass; [10]): 0 | Velvetleaf plant response rating (velvetleaf; [1]): 0 | Velvetleaf plant response rating (velvetleaf; [2]): 0 | Plant response rating, Velvetleaf (velvetleaf; [3]): 0 | Plant response rating, Velvetleaf (velvetleaf; [4]): 0 | Plant response rating, Velvetleaf (velvetleaf; [5]): 0 | Velvetleaf plant response rating (velvetleaf; [6]): 0 | Velvetleaf plant response rating (velvetleaf; [7]): 0 | Crabgrass plant response rating (crabgrass; [1]): 0 | Crabgrass plant response rating (crabgrass; [2]): 8 | Plant response rating, Crabgrass (crabgrass; [3]): 2 | Plant response rating, Crabgrass (crabgrass; [4]): 5 | Plant response rating, Crabgrass (crabgrass; [5]): 10 | Crabgrass plant response rating (crabgrass; [6]): 10 | Crabgrass plant response rating (crabgrass; [7]): 7 | Crabgrass plant response rating (crabgrass; [8]): 9
